Patent US9375416B2, “Epigallocatechin gallate tetramer and vascular endothelial function improving agent containing the same” (SUNTORY HOLDING LIMITED, priority 2008, dated 2016)

How the values were obtained:
Format in all cases: cell-based
Details in all cases: human umbilical vascular endothelial cells, 10 μM, 8 hours, untreated cells as control
[1] = test system: Nox4 subunit gene of NADPH oxidase; experiment: Expression of Nox4 subunit gene of NADPH oxidase in cultured vascular endothelial cells (quantitative PCR)
Text: (§1) With respect to the compounds of Formula (II) and Formula (III) synthesized and purified in Example 1, the effect of them on expression of a gene involved in the vascular endothelial function was studied. Furthermore, as compounds for comparison, an EGCG monomer (manufactured by Wako Pure Chemical Industries Ltd.), theaflavin, theaflavin 3-O-gallate, theaflavin 3′-O-gallate and theaflavin 3,3′-O-digallate (manufactured by Nagara Science Co., Ltd.), which are known to have a vascular endothelial function improving action.
(§2) These compounds were dissolved in sterilized dimethyl sulfoxide (DMSO, manufactured by Nacalai Tesque Inc.) to prepare a solution having a concentration of 10 mM.
(§3) These solutions were diluted 1000 fold by using HuMedia-EG2 medium (manufactured by Kurabo Industries Ltd.) to prepare a solution having a final concentration of 10 μM (the final concentration of DMSO was 0.1 V/V %). These sample solutions each were added to human umbilical vascular endothelial cells (manufactured by Kurabo Industries Ltd.) cultured in a 6-well plate in a proportion of 3 mL/well and incubated at 37° C. under 5% CO2 conditions for 8 hours.
(§4) The cells were recovered by ISOGEN (manufactured by Nippon Gene Co., Ltd.) and RNA was extracted from the cells. Furthermore, RNA was purified by RNeasy Mini Kit (QIAGEN). cDNA was synthesized by a High-Capacity cDNA reverse transcription kit (manufactured by Applied Biosystem) using the total RNA (200 ng) purified as a template and quantitative PCR was performed. Analysis was performed by comparative Ct method with a glyceraldehyde-3-phosphate dehydrogenase gene used as an internal standard. The gene expression change ratio (ratio relative to the control) of a test sample was calculated by using untreated cells as a control.

eNOS gene = eNOS gene expression in cultured vascular endothelial cells (quantitative PCR)
Text: as §1, §2, §3, §4

GTP-CH1 gene = GTP-CH1 gene expression in cultured vascular endothelial cells (quantitative PCR)
Text: as §1, §2, §3, §4

DDAH2 gene = DDAH2 gene expression in cultured vascular endothelial cells (quantitative PCR)
Text: as §1, §2, §3, §4

O=C(OC1Cc2c(cc(O)c(Cc3c(O)cc(O)c4c3OC(c3cc(O)c(O)c(O)c3)C(OC(=O)c3cc(O)c(O)c(O)c3)C4)c2O)OC1c1cc(O)c(O)c(O)c1)c1cc(O)c(O)c(O)c1 (centres unmarked) [oolong homobisflavan-B]
do not substantially change: expression of Nox4 subunit gene of NADPH oxidase (gene expression change ratio relative to the control) [1] | expression of the eNOS gene (gene expression change ratio relative to the control) (eNOS gene) | expression of the GTP-CH1 gene (gene expression change ratio relative to the control) (GTP-CH1 gene) | expression of the DDAH2 gene (gene expression change ratio relative to the control) (DDAH2 gene)

O=C(O[C@@H]1Cc2c(O)cc(O)cc2O[C@@H]1c1cc(O)c(O)c(O)c1-c1c([C@H]2Oc3cc(O)cc(O)c3C[C@H]2OC(=O)c2cc(O)c(O)c(O)c2)cc(O)c(O)c1O)c1cc(O)c(O)c(O)c1 [theasinensin A]
do not substantially change: expression of Nox4 subunit gene of NADPH oxidase (gene expression change ratio relative to the control) [1] | expression of the eNOS gene (gene expression change ratio relative to the control) (eNOS gene) | expression of the GTP-CH1 gene (gene expression change ratio relative to the control) (GTP-CH1 gene) | expression of the DDAH2 gene (gene expression change ratio relative to the control) (DDAH2 gene)

(−)-epigallocatechin-3-O-gallate [EGCG monomer]
do not substantially change: expression of Nox4 subunit gene of NADPH oxidase (gene expression change ratio relative to the control) [1] | expression of the eNOS gene (gene expression change ratio relative to the control) (eNOS gene) | expression of the GTP-CH1 gene (gene expression change ratio relative to the control) (GTP-CH1 gene) | expression of the DDAH2 gene (gene expression change ratio relative to the control) (DDAH2 gene)

O=C(O[C@@H]1Cc2c(cc(O)c(Cc3c(O)cc4c(c3O)C[C@@H](OC(=O)c3cc(O)c(O)c(O)c3)[C@@H](c3cc(O)c(O)c(O)c3)O4)c2O)O[C@@H]1c1cc(O)c(O)c(O)c1)c1cc(O)c(O)c(O)c1 [oolong homobisflavan-C]
do not substantially change: expression of Nox4 subunit gene of NADPH oxidase (gene expression change ratio relative to the control) [1] | expression of the eNOS gene (gene expression change ratio relative to the control) (eNOS gene) | expression of the GTP-CH1 gene (gene expression change ratio relative to the control) (GTP-CH1 gene) | expression of the DDAH2 gene (gene expression change ratio relative to the control) (DDAH2 gene)

O=C(OC1Cc2c(O)cc(O)c(Cc3c(O)cc(O)c4c3OC(c3cc(O)c(O)c(O)c3)C(OC(=O)c3cc(O)c(O)c(O)c3)C4)c2OC1c1cc(O)c(O)c(O)c1)c1cc(O)c(O)c(O)c1 (centres unmarked) [oolong homobisflavan-A, oolong homobisflavan A]
do not substantially change: expression of Nox4 subunit gene of NADPH oxidase (gene expression change ratio relative to the control) [1] | expression of the eNOS gene (gene expression change ratio relative to the control) (eNOS gene) | expression of the GTP-CH1 gene (gene expression change ratio relative to the control) (GTP-CH1 gene) | expression of the DDAH2 gene (gene expression change ratio relative to the control) (DDAH2 gene)
